From ChEMBL document CHEMBL5715260, “Selectivity Literature for EUbOPEN Chemogenomic Library” (2024) come the findings set out here.

Parameters in all cases: recommended concentration 1 uM
Assay [1] addresses Nuclear receptor subfamily 2 group E member 1 (Homo sapiens) (UniProt Q9Y466). Nature of the assay: Selectivity interaction (Reporter gene assay) EUB0000585a NR2E1.
Assay [2] addresses T1, Alpha trans-inducing protein (Human alphaherpesvirus 1) (UniProt A0A5J6DW59). Nature of the assay: Selectivity interaction (Reporter gene assay) EUB0000585a UL48. In general terms: Reporter assays use an easily measured gene product as a stand-in for the process of interest.
The target in assay [3] is Steroidogenic factor 1 (Homo sapiens) (UniProt Q13285). The assay can be described thus: Selectivity interaction (Reporter gene assay) EUB0000585a NR5A1.
Chain of Steroidogenic factor 1 (Homo sapiens) (Q13285 whole entry): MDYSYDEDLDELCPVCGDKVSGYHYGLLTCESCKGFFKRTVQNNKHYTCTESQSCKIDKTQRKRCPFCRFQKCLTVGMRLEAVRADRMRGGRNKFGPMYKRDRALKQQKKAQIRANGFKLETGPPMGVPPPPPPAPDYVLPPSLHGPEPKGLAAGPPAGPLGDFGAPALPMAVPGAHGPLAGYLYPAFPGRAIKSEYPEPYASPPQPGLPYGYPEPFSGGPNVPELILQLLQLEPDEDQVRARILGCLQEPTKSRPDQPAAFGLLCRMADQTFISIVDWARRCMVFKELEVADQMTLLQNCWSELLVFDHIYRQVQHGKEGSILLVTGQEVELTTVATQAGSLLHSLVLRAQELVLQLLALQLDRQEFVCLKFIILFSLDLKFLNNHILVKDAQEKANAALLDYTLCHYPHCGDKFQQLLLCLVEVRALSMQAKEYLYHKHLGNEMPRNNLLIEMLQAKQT
The target of assay [4] is Nuclear receptor subfamily 4immunitygroup A member 1 (Homo sapiens) (UniProt P22736). The assay can be described thus: Selectivity interaction (Reporter gene assay) EUB0000585a NR4A1.
Chain of Nuclear receptor subfamily 4immunitygroup A member 1 (Homo sapiens) (P22736 whole entry): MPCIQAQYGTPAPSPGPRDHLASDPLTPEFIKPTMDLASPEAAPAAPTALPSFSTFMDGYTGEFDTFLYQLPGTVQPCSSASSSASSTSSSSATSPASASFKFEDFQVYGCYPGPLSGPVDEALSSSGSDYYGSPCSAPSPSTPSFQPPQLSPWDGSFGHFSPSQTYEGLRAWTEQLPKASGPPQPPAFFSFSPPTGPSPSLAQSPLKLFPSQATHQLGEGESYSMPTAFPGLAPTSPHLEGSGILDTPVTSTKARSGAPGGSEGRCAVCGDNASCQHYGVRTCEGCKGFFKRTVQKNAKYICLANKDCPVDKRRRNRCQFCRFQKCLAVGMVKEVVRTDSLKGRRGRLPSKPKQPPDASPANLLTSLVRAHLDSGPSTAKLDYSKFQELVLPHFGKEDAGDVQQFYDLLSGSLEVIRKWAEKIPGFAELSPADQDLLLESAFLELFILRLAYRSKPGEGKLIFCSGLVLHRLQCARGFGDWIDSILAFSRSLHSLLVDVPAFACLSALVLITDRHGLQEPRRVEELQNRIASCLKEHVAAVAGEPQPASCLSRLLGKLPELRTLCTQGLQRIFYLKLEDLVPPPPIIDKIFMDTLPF
Assay [5] addresses T2, Nuclear receptor subfamily 2 group C member 1 (Homo sapiens) (UniProt P13056).
T2 sequence (whole entry): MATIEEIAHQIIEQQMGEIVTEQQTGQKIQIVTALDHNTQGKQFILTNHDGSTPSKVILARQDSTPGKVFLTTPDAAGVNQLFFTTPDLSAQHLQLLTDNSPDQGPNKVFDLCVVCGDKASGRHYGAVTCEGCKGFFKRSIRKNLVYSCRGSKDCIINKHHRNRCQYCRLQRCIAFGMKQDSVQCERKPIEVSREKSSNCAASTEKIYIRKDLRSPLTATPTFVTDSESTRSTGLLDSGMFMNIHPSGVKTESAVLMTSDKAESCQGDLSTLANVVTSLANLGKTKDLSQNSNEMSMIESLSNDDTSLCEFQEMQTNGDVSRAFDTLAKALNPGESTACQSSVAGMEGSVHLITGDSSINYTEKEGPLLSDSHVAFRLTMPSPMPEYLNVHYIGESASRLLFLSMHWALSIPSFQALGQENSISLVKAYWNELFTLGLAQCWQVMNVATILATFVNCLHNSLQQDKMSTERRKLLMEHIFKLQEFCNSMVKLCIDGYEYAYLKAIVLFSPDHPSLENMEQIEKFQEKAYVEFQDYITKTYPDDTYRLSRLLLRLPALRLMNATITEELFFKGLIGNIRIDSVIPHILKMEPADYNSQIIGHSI
The assay can be described thus: Selectivity interaction (Reporter gene assay) EUB0000585a NR2C1.

The target in assay [6] is T3, Retinoic acid receptor RXR-alpha (Homo sapiens) (UniProt P19793).
T3 sequence (whole entry): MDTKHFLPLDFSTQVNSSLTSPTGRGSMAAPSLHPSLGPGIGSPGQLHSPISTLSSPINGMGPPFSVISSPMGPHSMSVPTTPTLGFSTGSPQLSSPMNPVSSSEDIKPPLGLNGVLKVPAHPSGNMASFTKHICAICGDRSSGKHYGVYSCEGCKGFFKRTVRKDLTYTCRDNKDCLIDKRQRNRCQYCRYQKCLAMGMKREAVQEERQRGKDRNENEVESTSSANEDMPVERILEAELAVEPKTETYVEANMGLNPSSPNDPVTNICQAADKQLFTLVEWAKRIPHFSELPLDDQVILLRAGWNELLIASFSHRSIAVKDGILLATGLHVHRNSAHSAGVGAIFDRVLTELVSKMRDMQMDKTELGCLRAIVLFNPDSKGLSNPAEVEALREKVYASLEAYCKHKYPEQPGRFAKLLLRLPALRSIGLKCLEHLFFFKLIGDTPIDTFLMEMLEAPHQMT
Nature of the assay: Selectivity interaction (Reporter gene assay) EUB0000585a RXRA. Particulars: reference bexarotene 1 uM, Selectivity number of off-targets 0.0, Selectivity number of targets 1.0, Source Knowledge inhouse.

The target in assay [7] is T4, Hepatocyte nuclear factor 4-alpha (Homo sapiens) (UniProt P41235).
T4 sequence (whole entry): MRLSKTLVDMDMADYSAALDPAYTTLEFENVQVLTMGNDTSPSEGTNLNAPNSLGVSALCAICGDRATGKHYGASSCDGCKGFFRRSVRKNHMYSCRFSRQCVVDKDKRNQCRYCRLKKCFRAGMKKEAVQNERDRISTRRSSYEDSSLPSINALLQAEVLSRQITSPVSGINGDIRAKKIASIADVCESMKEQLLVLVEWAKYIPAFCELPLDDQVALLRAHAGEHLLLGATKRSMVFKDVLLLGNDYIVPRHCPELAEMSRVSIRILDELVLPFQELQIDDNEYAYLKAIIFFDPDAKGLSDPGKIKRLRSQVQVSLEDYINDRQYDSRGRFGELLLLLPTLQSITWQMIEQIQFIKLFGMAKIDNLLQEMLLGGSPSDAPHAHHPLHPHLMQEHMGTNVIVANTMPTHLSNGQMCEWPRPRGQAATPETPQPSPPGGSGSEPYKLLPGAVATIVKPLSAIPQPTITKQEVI
Nature of the assay: Selectivity interaction (Reporter gene assay) EUB0000585a HNF4A.

In assay [8] the target is T4, Hepatocyte nuclear factor 4-alpha (Homo sapiens). Nature of the assay: Selectivity interaction (Reporter gene assay) EUB0001139a HNF4A.
Assay [9] concerns the target Nuclear receptor subfamily 2 group E member 1 (Homo sapiens) (UniProt Q9Y466). Nature of the assay: Selectivity interaction (Reporter gene assay) EUB0001139a NR2E1.
For assay [10], the target named is Steroidogenic factor 1 (Homo sapiens) (UniProt Q13285). Nature of the assay: Selectivity interaction (Reporter gene assay) EUB0001139a NR5A1. Particulars: screened at recom. conc., Selectivity number of off-targets 1.0, Selectivity number of targets 5.0, Source Knowledge inhouse.
For assay [11], the target named is T2, Nuclear receptor subfamily 2 group C member 1 (Homo sapiens). Nature of the assay: Selectivity interaction (Reporter gene assay) EUB0001139a NR2C1.
The target in assay [12] is Nuclear receptor subfamily 4immunitygroup A member 1 (Homo sapiens) (UniProt P22736). The assay can be described thus: Selectivity interaction (Reporter gene assay) EUB0001139a NR4A1.
Assay [13] concerns the target T3, Retinoic acid receptor RXR-alpha (Homo sapiens). Nature of the assay: Selectivity interaction (Reporter gene assay) EUB0001139a RXRA.
Assay [14] has as its target T1, Alpha trans-inducing protein (Human alphaherpesvirus 1). The assay can be described thus: Selectivity interaction (Reporter gene assay) EUB0001139a UL48.
In assay [15] the target is T2, Nuclear receptor subfamily 2 group C member 1 (Homo sapiens). Nature of the assay: Selectivity interaction (Reporter gene assay) EUB0000582a NR2C1.
For assay [16], the target named is Nuclear receptor subfamily 2 group E member 1 (Homo sapiens) (UniProt Q9Y466). Nature of the assay: Selectivity interaction (Reporter gene assay) EUB0000582a NR2E1.
Chain of Nuclear receptor subfamily 2 group E member 1 (Homo sapiens) (Q9Y466 whole entry): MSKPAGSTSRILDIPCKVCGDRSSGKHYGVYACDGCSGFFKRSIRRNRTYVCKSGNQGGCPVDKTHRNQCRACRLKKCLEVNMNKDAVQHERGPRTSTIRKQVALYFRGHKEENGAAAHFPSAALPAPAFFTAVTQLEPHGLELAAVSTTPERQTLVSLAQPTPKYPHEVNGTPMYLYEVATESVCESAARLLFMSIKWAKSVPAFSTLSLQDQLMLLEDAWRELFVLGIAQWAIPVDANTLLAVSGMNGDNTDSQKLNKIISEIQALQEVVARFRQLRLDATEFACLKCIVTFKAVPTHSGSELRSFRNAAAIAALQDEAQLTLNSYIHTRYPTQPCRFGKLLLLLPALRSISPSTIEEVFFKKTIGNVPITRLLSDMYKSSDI
Assay [17] concerns the target T3, Retinoic acid receptor RXR-alpha (Homo sapiens). Nature of the assay: Selectivity interaction (Reporter gene assay) EUB0000582a RXRA. Particulars: reference bexarotene 1 uM, Selectivity number of off-targets 0.0, Selectivity number of targets 1.0, Source Knowledge inhouse.
Assay [18] addresses T4, Hepatocyte nuclear factor 4-alpha (Homo sapiens). Nature of the assay: Selectivity interaction (Reporter gene assay) EUB0000582a HNF4A.
Assay [19] addresses Steroidogenic factor 1 (Homo sapiens) (UniProt Q13285). Nature of the assay: Selectivity interaction (Reporter gene assay) EUB0000582a NR5A1.
The target of assay [20] is Nuclear receptor subfamily 4immunitygroup A member 1 (Homo sapiens) (UniProt P22736). Nature of the assay: Selectivity interaction (Reporter gene assay) EUB0000582a NR4A1.
Assay [21] has as its target T1, Alpha trans-inducing protein (Human alphaherpesvirus 1). Nature of the assay: Selectivity interaction (Reporter gene assay) EUB0000582a UL48.
The target in assay [22] is T2, Nuclear receptor subfamily 2 group C member 1 (Homo sapiens). Nature of the assay: Selectivity interaction (Reporter gene assay) EUB0001136a NR2C1.
The target of assay [23] is T1, Alpha trans-inducing protein (Human alphaherpesvirus 1). The assay can be described thus: Selectivity interaction (Reporter gene assay) EUB0001136a UL48.
Assay [24] concerns the target Nuclear receptor subfamily 4immunitygroup A member 1 (Homo sapiens) (UniProt P22736). The assay can be described thus: Selectivity interaction (Reporter gene assay) EUB0001136a NR4A1.
Assay [25] concerns the target Nuclear receptor subfamily 2 group E member 1 (Homo sapiens) (UniProt Q9Y466). Nature of the assay: Selectivity interaction (Reporter gene assay) EUB0001136a NR2E1. As to conditions: screened at recom. conc., Selectivity number of off-targets 2.0, Selectivity number of targets 5.0, Source Knowledge inhouse.
The target of assay [26] is Steroidogenic factor 1 (Homo sapiens) (UniProt Q13285). Nature of the assay: Selectivity interaction (Reporter gene assay) EUB0001136a NR5A1. As to conditions: screened at recom. conc., Selectivity number of off-targets 2.0, Selectivity number of targets 5.0, Source Knowledge inhouse.
Assay [27] concerns the target Nuclear receptor ROR-beta (Homo sapiens) (UniProt Q92753). Nature of the assay: Selectivity interaction (Reporter gene assay) EUB0001136a RORB. As to conditions: screened at recom. conc., Selectivity number of off-targets 3.0, Selectivity number of targets 19.0, Source Knowledge inhouse.
For assay [28], the target named is T4, Hepatocyte nuclear factor 4-alpha (Homo sapiens). The assay can be described thus: Selectivity interaction (Reporter gene assay) EUB0001136a HNF4A.
Assay [29] addresses Nuclear receptor ROR-gamma (Homo sapiens) (UniProt P51449). The assay can be described thus: Selectivity interaction (Reporter gene assay) EUB0001136a RORC. Particulars: screened at recom. conc., Selectivity number of off-targets 3.0, Selectivity number of targets 19.0, Source Knowledge inhouse.
Assay [30] has as its target Nuclear receptor ROR-alpha (Homo sapiens) (UniProt P35398). The assay can be described thus: Selectivity interaction (Reporter gene assay) EUB0001136a RORA. As to conditions: screened at recom. conc., Selectivity number of off-targets 3.0, Selectivity number of targets 19.0, Source Knowledge inhouse.

T1 sequence (A0A5J6DW59 as listed by the source): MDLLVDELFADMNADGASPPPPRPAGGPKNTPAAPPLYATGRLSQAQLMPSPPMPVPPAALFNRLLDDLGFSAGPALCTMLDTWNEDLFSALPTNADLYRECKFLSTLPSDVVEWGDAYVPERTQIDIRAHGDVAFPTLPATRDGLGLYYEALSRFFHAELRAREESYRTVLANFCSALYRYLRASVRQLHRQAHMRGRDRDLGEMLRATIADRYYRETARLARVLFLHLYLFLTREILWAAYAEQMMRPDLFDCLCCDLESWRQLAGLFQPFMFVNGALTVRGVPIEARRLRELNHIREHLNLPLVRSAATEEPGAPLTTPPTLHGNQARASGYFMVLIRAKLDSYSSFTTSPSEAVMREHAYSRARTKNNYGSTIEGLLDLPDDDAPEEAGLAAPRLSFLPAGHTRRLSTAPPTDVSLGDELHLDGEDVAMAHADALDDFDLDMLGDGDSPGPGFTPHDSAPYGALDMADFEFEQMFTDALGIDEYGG
Chain of Nuclear receptor ROR-gamma (Homo sapiens) (P51449 whole entry): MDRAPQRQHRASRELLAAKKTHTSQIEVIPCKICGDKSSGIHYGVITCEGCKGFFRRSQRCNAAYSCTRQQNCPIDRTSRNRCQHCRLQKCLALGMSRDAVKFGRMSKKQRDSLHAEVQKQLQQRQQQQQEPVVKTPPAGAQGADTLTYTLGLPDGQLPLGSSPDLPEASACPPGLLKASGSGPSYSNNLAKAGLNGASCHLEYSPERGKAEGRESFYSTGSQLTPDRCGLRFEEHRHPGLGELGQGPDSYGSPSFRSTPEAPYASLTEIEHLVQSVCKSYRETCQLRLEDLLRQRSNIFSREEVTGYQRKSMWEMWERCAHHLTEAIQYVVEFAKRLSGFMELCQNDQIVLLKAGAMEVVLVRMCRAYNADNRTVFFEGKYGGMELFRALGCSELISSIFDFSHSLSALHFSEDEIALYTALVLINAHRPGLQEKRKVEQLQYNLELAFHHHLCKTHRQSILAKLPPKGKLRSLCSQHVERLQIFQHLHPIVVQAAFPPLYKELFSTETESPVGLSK
Chain of Nuclear receptor ROR-alpha (Homo sapiens) (P35398 whole entry): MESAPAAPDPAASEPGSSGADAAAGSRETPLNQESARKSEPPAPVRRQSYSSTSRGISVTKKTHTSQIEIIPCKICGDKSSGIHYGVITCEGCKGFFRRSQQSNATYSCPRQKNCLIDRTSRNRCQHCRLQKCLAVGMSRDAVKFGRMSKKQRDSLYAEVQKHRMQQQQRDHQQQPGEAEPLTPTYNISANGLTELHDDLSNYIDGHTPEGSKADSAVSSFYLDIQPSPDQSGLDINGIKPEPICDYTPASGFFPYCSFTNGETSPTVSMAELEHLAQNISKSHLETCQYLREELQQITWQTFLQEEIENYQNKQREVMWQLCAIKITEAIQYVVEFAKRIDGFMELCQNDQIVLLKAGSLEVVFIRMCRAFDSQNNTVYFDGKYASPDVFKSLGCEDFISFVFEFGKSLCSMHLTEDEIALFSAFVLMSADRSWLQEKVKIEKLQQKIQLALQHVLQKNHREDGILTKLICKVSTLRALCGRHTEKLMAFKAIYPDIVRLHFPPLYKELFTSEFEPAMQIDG
Chain of Nuclear receptor ROR-beta (Homo sapiens) (Q92753 whole entry): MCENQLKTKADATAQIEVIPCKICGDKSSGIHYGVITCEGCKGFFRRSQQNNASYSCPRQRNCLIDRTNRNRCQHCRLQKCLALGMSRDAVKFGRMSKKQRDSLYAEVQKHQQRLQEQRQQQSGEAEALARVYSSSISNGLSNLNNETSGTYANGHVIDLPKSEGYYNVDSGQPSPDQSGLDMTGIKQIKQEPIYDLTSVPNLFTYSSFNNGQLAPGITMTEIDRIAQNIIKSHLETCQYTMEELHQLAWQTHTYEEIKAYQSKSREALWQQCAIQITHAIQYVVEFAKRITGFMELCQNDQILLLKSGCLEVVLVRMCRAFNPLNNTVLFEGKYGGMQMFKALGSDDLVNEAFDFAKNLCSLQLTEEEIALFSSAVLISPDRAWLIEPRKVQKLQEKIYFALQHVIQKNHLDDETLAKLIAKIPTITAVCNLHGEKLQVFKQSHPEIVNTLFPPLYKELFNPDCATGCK

`Cc1cc(OCC(=O)O)cc(C)c1Cc1ccc(O)c(C(C)C)c1`: the Remaining activity in assay [1] was 0.57; in assay [3] it was 0.672; in [4], 0.496; in [5], 0.638; in assay [7], 0.623. The compound further returned a P-value in assay [2] of 0.00063. Further, the Relative activation in [6] was determined as 0.666%.

Take `O=C(O)Cc1cc(I)c(Oc2ccc(O)c(I)c2)c(I)c1`: the Fold activation in assay [8] was 1.47; in assay [9], 1.12; in [10], 2. In addition, the Remaining activity in [11] is 0.686; in [12], 0.863. This compound also came in with a Relative activation in assay [13] of 0.726%. The P-value in assay [14] is 0.009.

Turning to `C=C1/C(=C\C=C2/CCC[C@]3(C)[C@@H]([C@H](C)/C=C/C=C/C(O)(CC)CC)CC[C@@H]23)C[C@@H](O)C[C@@H]1O`, the Fold activation in assay [15] was 1.62; in assay [16], 0.996; in assay [18], 1.08; in assay [19] it was 1.27; in assay [20] it was 1.19. The compound also showed a Relative activation in assay [17] of 0.643%. Moreover, the P-value in [21] came out at 0.000219.

As for `CC(C=CC1=C(C)CCCC1(C)C)=CC=CC(C)=CC(=O)O`, the Remaining activity in assay [22] was determined as 0.503; in [24], 0.986; in assay [25] it was 0.42; in assay [26] it was 0.42; in assay [27] it was 0.531; in [28], 0.532. In addition, the Remaining activity was found to be 0.461 in assay [29] and 0.56 in assay [30]. Besides, the P-value in [23] turned out to be 0.000127.
